Data on five molecules can be found in article PMC8151655, “Some Dietary Phenolic Compounds Can Activate Thyroid Peroxidase and Inhibit Lipoxygenase-Preliminary Study in the Model Systems” (International Journal of Molecular Sciences, 2021).

A word on the IC50: it is the concentration needed to halve the response being measured. As usually defined, the Ki is the equilibrium dissociation constant of an inhibitor or competing ligand from its target. Low values mean tighter binding, high ones weaker binding. Usually Km stands for the substrate concentration at which the rate is half of its maximum.

One data set deals with T1, thyroid peroxidase (TPO) (Sus scrofa, UniProt P09933).
T1 construct: The frozen thyroid gland was minced with a fork; from tissue; host or cells: porcine thyroid gland (homogenate, centrifuged, salted out to 60%)
T1 sequence (P09933 15-926): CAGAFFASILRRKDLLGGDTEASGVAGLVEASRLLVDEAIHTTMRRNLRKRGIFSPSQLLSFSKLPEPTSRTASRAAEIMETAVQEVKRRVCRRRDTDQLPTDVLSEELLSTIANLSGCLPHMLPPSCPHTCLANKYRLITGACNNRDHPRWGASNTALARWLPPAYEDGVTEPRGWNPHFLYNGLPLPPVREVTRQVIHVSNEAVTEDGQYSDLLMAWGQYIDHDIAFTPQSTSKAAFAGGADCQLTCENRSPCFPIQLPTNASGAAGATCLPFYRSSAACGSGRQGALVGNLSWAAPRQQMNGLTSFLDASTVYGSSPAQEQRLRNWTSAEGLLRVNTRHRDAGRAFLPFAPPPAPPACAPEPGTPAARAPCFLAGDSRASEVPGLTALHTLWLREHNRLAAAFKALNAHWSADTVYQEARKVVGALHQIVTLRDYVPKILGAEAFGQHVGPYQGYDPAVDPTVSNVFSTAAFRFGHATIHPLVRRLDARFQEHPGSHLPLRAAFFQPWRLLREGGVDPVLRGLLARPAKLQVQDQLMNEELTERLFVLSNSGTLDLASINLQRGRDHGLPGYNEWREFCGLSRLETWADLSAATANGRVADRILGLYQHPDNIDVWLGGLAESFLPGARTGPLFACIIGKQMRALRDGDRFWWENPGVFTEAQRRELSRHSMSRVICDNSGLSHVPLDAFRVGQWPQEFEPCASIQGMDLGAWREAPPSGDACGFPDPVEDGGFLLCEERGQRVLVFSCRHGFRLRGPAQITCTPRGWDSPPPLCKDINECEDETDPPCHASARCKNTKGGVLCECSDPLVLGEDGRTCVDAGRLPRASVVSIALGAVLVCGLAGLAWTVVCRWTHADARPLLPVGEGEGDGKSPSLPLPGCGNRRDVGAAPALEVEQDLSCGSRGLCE
Briefly: TPO assay (guaiacol oxidation, activation kinetics). The class given is biochemical, Porcine. Conditions: n = 9, read-out: AC50 (concentration resulting in 50% activation). As for the experimental part:
(§1) The assay was prepared according to Jomaa et al., with some modifications. Porcine thyroid glands were purchased at a slaughterhouse (Lublin, Poland) and stored at −20 °C until used. The frozen thyroid gland was minced with a fork. The mince was suspended in a buffer containing 0.25 M sucrose, 2 mM tris–HCl, 100 mM KCl, 40 mM NaCl and 10 mM MgCl2 (pH 7.4) and homogenized using Philips homogenizer. The thyroid gland was centrifuged two times at 4000 RPM per 15 min at a temperature + 4 °C. The enzyme protein was then salted out to 60%. The supernatant was stored at − 20 °C until used.
(§2) The assay was used according to Jomaa et al., with some modification. The measurement was made using a plate spectrophotometer (BioTek, Model Epoch2TC, Winooski, VT, USA) in 96–well plates at a wavelength of 470 nm. Absorbance readings were recorded every minute for a total of 3 min at 37 °C. TPO activity is expressed as a change of absorption per minute. All measurements were performed in three replicates. The AC50 (activator concentration) values were calculated at fitted models as the concentration of the tested compound providing 50% of the activation based on a dose-dependent mode of action.

A short description of data set [1]: ABTS radical scavenging assay. Particulars: 15 min incubation at room temperature, n = 9; read-out: IC50 ABTS radical scavenging ability. The procedure:
ABTS radical scavenging activity was determined according to Re et al. with slight modifications using a microplate spectrophotometer (BioTek, Model Epoch2TC, Winooski, VT, USA) after 15 min of incubation at room temperature.

The conditions of data set [2]: FA perfused as a free pure compound in the rat intestine; cited from earlier work.
In data set [3] the test system is LOX. Particulars: different concentration than in the presented study; cited from earlier work.
For data set [4], the target named is T2, soybean lipoxygenase type 1-B (LOX) (Glycine max, UniProt P08170).
T2 construct: purchased Sigma-Aldrich Company (Poznan, Poland)
T2 sequence (P08170 1-839): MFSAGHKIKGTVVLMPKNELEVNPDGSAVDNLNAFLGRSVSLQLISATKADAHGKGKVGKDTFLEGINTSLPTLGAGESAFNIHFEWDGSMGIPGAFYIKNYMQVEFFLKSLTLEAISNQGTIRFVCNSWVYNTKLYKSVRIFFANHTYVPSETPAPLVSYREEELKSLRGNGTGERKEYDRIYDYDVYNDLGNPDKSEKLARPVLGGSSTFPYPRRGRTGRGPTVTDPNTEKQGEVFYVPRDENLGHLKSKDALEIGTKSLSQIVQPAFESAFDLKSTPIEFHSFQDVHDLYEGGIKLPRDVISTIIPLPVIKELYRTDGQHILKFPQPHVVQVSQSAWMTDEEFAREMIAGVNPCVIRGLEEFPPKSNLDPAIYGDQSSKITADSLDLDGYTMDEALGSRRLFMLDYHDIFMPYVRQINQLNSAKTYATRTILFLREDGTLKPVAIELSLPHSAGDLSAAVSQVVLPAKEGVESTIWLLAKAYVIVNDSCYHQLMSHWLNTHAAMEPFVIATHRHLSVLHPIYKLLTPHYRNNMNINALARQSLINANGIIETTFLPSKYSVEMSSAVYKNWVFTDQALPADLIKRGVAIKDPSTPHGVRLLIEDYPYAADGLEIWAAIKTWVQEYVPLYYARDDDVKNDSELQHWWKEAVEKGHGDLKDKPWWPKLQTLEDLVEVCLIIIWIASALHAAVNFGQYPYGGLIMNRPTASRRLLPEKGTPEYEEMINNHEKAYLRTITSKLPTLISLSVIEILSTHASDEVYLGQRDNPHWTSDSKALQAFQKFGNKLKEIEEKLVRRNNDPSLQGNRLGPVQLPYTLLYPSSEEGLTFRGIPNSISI
Kind of data set: Inhibition of lipoxygenase activity (LOXI) with linoleic acid as substrate. The data set is classed as biochemical. Conditions: for Mode of Inhibition: Lineweaver-Burk, linoleic acid substrate. The procedure:
Measurement was made at a wavelength of 234 nm. One unit of LOX activity was defined as an increase in absorbance of 0.001 per minute at 234 nm. All measurements were performed in four replicates.

Details of data set [5]: method as in PMID 10730826. Conditions: humans, FA in its free form, for example from beer; cited from earlier work.
The subject of data set [6] is LOX. More on the design: method as in doi:10.3390/app9030568. Conditions: previous studies; cited from earlier work.
The conditions of data set [7]: blood samples of rabbits; cited from earlier work.
On the set-up of data set [8]: method as in earlier work. Particulars: cited from earlier work.
Substrate in data set [9]: COc1ccccc1O
Briefly: TPO assay (guaiacol oxidation, activation kinetics). Conditions: other: TPO substrate guaiacol, n = 9; pH 7.4. The class given is biochemical, Porcine. As for the experimental part: as §1, §2

In the case of `COc1cc(/C=C/C(=O)O)ccc1O` [Ferulic acid, ferulic acid], the AC50 on thyroid peroxidase (TPO) was found to be 390 ± 19 µM. In addition, the IC50 in [1] was 410 ± 20 µM. For the same molecule, the Bioavailability entry in data set [2] is on record as “about 50%”. The LOX inhibition in the data set on LOX [3] was 74.4%. Further, in data set [4], the midpoint of inhibition, the IC50, lay at 27 ± 1.3 µM; the affinity, expressed as Ki, was 8 ± 0.4 µM; the “Mode of Inhibition” value was “uncompetitive”. Further, the Urinary excretion in data set [5] is 19–98%. For the same molecule, the “Mode of LOX inhibition” value with LOX [6] is on record as “competitive”.
Turning to `CCCCC/C=C\C/C=C\CCCCCCCC(=O)O` [Linoleic acid, reference compound], the Michaelis constant (Km) in data set [4] (LOX substrate linoleic acid, read-out: Km without Inhibitor) was found to be 7 ± 0.3 µM.
In the case of `COc1cc(C(=O)O)cc(OC)c1O` [Syringic acid, syringic acid], the AC50 at thyroid peroxidase (TPO) was 690 ± 34 µM. For the same molecule, in data set [1], the IC50 is 220 ± 11 µM. In [4], 9 ± 0.4 µM corresponded to half-maximal inhibition (IC50), the Ki amounted to 5 ± 0.3 µM and the “Mode of Inhibition” value is on record as “uncompetitive”. For the same molecule, the Absolute bioavailability in data set [7] is 86.27%.
Take `O=C(O)/C=C/c1ccccc1` [trans–cinnamic acid, trans-cinnamic acid]: the AC50 at thyroid peroxidase (TPO) came to 100 ± 5 µM. In data set [1], the IC50 is 2120 ± 106 µM. Moreover, in the data set with LOX [3], the LOX inhibition is listed as 66.6%. In [4], the IC50 turned out to be 9 ± 0.4 µM, the inhibition constant Ki was 9 ± 0.4 µM and the “Mode of Inhibition” value is “uncompetitive”. For the same molecule, the Oral bioavailability entry in [8] is given as “low”.

B1: thyroid peroxidase (TPO) (Sus scrofa) (protein)
chain: T1 sequence (P09933 15-926)
notes: The frozen thyroid gland was minced with a fork; from tissue; host or cells: porcine thyroid gland (homogenate, centrifuged, salted out to 60%)
In the case of B1, the Km in [9] amounted to 60 ± 3 µM.
